Assay results as given in the NIST ThermoML archive (doi:10.1016/j.jct.2011.12.024).
± gives the expanded uncertainty stated by the source.

Experiments:
[1] = 101.33 kPa, Liquid, Vibrating tube method
[2] = refractive index (other wavelength) (dimensionless); conditions: 101.33 kPa, Liquid, Wavelength=632.8 nm, Standard Abbe refractometry
[3] = refractive index (other wavelength) (dimensionless); xn = mol fraction of the nth substance listed; conditions: 101.33 kPa, Liquid, Wavelength=632.8 nm, Standard Abbe refractometry

## COC(=O)CCCCC(=O)OC [dimethyl 1,6-hexanedioate]
[1]; 281.15 K
  mass density: 1073.09 ± 0.29 kg/m3
[1]; 282.15 K
  mass density: 1072.12 ± 0.29 kg/m3
[1]; 283.15 K
  mass density: 1071.14 ± 0.29 kg/m3
[1]; 284.15 K
  mass density: 1070.17 ± 0.29 kg/m3
[1]; 285.15 K
  mass density: 1069.19 ± 0.28 kg/m3
[1]; 286.15 K
  mass density: 1068.21 ± 0.28 kg/m3
[1]; 287.15 K
  mass density: 1067.24 ± 0.28 kg/m3
[1]; 288.15 K
  mass density: 1066.26 ± 0.28 kg/m3
[1]; 289.15 K
  mass density: 1065.29 ± 0.28 kg/m3
[1]; 290.15 K
  mass density: 1064.32 ± 0.28 kg/m3
[1]; 291.15 K
  mass density: 1063.34 ± 0.28 kg/m3
[1]; 292.15 K
  mass density: 1062.37 ± 0.28 kg/m3
[1]; 293.15 K
  mass density: 1061.39 ± 0.28 kg/m3
[1]; 294.15 K
  mass density: 1060.42 ± 0.28 kg/m3
[1]; 295.15 K
  mass density: 1059.45 ± 0.28 kg/m3
[1]; 296.15 K
  mass density: 1058.47 ± 0.28 kg/m3
[1]; 297.15 K
  mass density: 1057.5 ± 0.28 kg/m3
[1]; 298.15 K
  mass density: 1056.52 ± 0.28 kg/m3
[1]; 299.15 K
  mass density: 1055.55 ± 0.27 kg/m3
[1]; 300.15 K
  mass density: 1054.58 ± 0.27 kg/m3
[1]; 301.15 K
  mass density: 1053.6 ± 0.27 kg/m3
[1]; 302.15 K
  mass density: 1052.63 ± 0.27 kg/m3
[1]; 303.15 K
  mass density: 1051.65 ± 0.27 kg/m3
[1]; 304.15 K
  mass density: 1050.68 ± 0.27 kg/m3
[1]; 305.15 K
  mass density: 1049.7 ± 0.27 kg/m3
[1]; 306.15 K
  mass density: 1048.73 ± 0.27 kg/m3
[1]; 307.15 K
  mass density: 1047.75 ± 0.27 kg/m3
[1]; 308.15 K
  mass density: 1046.78 ± 0.27 kg/m3
[2]; 283.48 K
  refractive index: 1.4312 ± 0.0004
[2]; 284.37 K
  refractive index: 1.4309 ± 0.0004
[2]; 285.28 K
  refractive index: 1.4305 ± 0.0004
[2]; 286.1 K
  refractive index: 1.4302 ± 0.0004
[2]; 286.92 K
  refractive index: 1.4298 ± 0.0004
[2]; 287.65 K
  refractive index: 1.4296 ± 0.0004
[2]; 288.49 K
  refractive index: 1.4292 ± 0.0004

## COC(=O)CCCCC(=O)OC [dimethyl 1,6-hexanedioate] + CCCCCC
[3]; 289.28 K, x1 = 0.101
  refractive index: 1.3821 ± 0.0006
[3]; 289.28 K, x1 = 0.202
  refractive index: 1.3884 ± 0.0005
[3]; 289.28 K, x1 = 0.301
  refractive index: 1.3944 ± 0.0005
[3]; 289.28 K, x1 = 0.394
  refractive index: 1.3998 ± 0.0005
[3]; 289.28 K, x1 = 0.5
  refractive index: 1.4056 ± 0.0005
[3]; 289.28 K, x1 = 0.599
  refractive index: 1.4107 ± 0.0005
[3]; 289.28 K, x1 = 0.706
  refractive index: 1.416 ± 0.001
[3]; 289.28 K, x1 = 0.799
  refractive index: 1.4203 ± 0.0005
[3]; 289.28 K, x1 = 0.882
  refractive index: 1.4239 ± 0.0005

## CCCCCCC [heptane] + COC(=O)CCCCC(=O)OC
[3]; 289.62 K, x2 = 0
  refractive index: 1.3883 ± 0.0004
[3]; 290.68 K, x2 = 0
  refractive index: 1.3878 ± 0.0004
[3]; 291.71 K, x2 = 0
  refractive index: 1.3873 ± 0.0004
[3]; 292.7 K, x2 = 0
  refractive index: 1.3868 ± 0.0004
[3]; 293.74 K, x2 = 0
  refractive index: 1.3863 ± 0.0004
[3]; 294.71 K, x2 = 0
  refractive index: 1.3858 ± 0.0004
[3]; 295.77 K, x2 = 0
  refractive index: 1.3853 ± 0.0004

## CCCCCC [hexane]
[2]; 283.72 K
  refractive index: 1.3789 ± 0.0004
[2]; 284.52 K
  refractive index: 1.3785 ± 0.0004
[2]; 285.35 K
  refractive index: 1.3781 ± 0.0004
[2]; 286.21 K
  refractive index: 1.3776 ± 0.0004
[2]; 287.1 K
  refractive index: 1.3771 ± 0.0004
[2]; 287.94 K
  refractive index: 1.3767 ± 0.0004
[2]; 288.71 K
  refractive index: 1.3762 ± 0.0004
